Converted amounts (≈) assume the structure as drawn.
Tests used:
Type in all cases: cell-based, Staphylococcus aureus
[1] = system: S. aureus clinical isolates; assay: Synergistic effect with oxacillin (oxacillin MIC alone and in presence of SIC)
Description: The synergistic effect (interaction) of HN18 and HN34 with different antibiotics against S. aureus clinical isolates was studied. The oxacillin MIC values of 8 clinical isolates of Staphylococcus aureus were determined. The oxacillin MIC of the same isolates were also determined after they were exposed to SIC of HN18, HN34 (Table 5). […] Column 2 and 3 show the oxacillin MIC value of the same isolates in presence of SIC of HN18 and HN34 respectively.

[2] = system: Methicillin-resistant S. aureus strains; S. aureus (K1902); assay: MIC and SIC in 96 well microplates (plasmid curing study)
Description: Plasmid curing activity of HN18 and HN34 was evaluated. Methicillin-resistant S. aureus strains were sub-cultured on blood agar plates to obtain isolated colonies, incubated at 35° C. in a CO2 incubator. The fresh overnight bacterial inoculum was prepared by re-suspending a few isolated colonies in a tube containing 5 ml of saline. […] The sub-inhibitory concentration (SIC) is defined as the concentration before MIC (in a serial dilution method where antibiotic concentration decreases by half from each tube to the next one).
(§1) Plasmid curing activity of HN18 and HN34 was also evaluated in S. aureus (K1902) which is known to harbor a 5 kb plasmid with a chloramphenicol resistance gene. Along with the KSA reference strain, the plasmid curing activity was repeated for SA1 and SA2 strains which are MRSA (Table 4).

[3] = system: methicillin-resistant S. aureus clinical isolates (MRSA); S. aureus (K1902); assay: Plasmid curing at sub-inhibitory concentration
Description: Plasmid curing was performed per Trevors (Trevors, 1986 Plasmid curing in bacteria. FEMS Microbiology, 32: 149-157). In brief, the clinical isolate was grown in the presence of HN18 and HN34 at the specified concentration for 18 h at 35° C. and then plated on Muller Hinton agar (MHA) plates to obtain isolated colonies. The isolated colonies were then replica plated onto MHA and MHA plates containing antibiotics. […] The percentage curing efficiency was expressed as the number of colonies with cured phenotype per 100 colonies tested. For plasmid extraction, 5 ml of an overnight culture of S. aureus strain was centrifuged and cells were subjected to 1 ml lysostaphin (20 μg/ml) for 1 hour at 35° C. prior to DNA extraction. Extraction of DNA was carried using QIAprep Spin Miniprep Kit (Qiagen) per manufacturer's instruction. DNA profile analysis was carried out by electrophoresis on 1.5% agarose gel.
The methicillin-resistant S. aureus clinical isolates (MRSA) growing in the presence of sub-inhibitory concentrations of HN18 and HN34 were taken for the evaluation for the loss of plasmids as described above. A culture control without a curing agent was also maintained in the curing experiment to estimate the rate of spontaneous loss of plasmids under these conditions. HN18 and HN34 eliminated the plasmid mediated antibiotic resistance markers with varying curing efficiencies (Table 3). HN18 cured plasmids from SA1, SA2, SA7 and SA8 at frequency in the range of 13-100%. HN34 also cured plasmids from SA1, SA2, SA7 and SA8 strains with 30%-100% curing efficiency.
as §1

[4] = Table 4, KSA (S. aureus K1902), experiment I
[5] = Table 4, KSA (S. aureus K1902), experiment II
[6] = Table 4, isolate SA1, experiment I
[7] = Table 4, isolate SA1, experiment II
[8] = Table 4, isolate SA2, experiment II
[9] = Table 3, isolate SA1, at SIC, lack of growth in presence of M, Ox (4 μg/ml)
[10] = Table 3, isolate SA2, at SIC, lack of growth in presence of M, Ox (4 μg/ml)
[11] = Table 3, isolate SA3, at SIC, lack of growth in presence of M, Ox (4 μg/ml)
[12] = Table 3, isolate SA4, at SIC, lack of growth in presence of M, Ox (4 μg/ml)
[13] = Table 3, isolate SA5, at SIC, lack of growth in presence of M, Ox (4 μg/ml)
[14] = Table 3, isolate SA6, at SIC, lack of growth in presence of M, Ox (4 μg/ml)
[15] = Table 3, isolate SA7, at SIC, lack of growth in presence of M, Ox (4 μg/ml)
[16] = Table 3, isolate SA8, at SIC, lack of growth in presence of M, Ox (4 μg/ml)

Fc1ccc(C(C2=CNC3C=CC=CC23)C2=C3C=CC=CC3NC2)cc1F (centres unmarked) [HN18, 3-((3,4-difluorophenyl)(2,7a-dihydro-1H-indol-3-yl)methyl)-3a,7a-dihydro-1H-indole]
Synergistic activity in combination with oxacillin ([1]; S. aureus clinical isolates, compound at SIC): decrease in the oxacillin MIC | Oxacillin MIC in presence of SIC of the compound (1 μg/ml) ([1]; isolate SA3, experiment I): 0.5 µg/mL | Oxacillin MIC in presence of SIC of the compound (1 μg/ml) ([1]; isolate SA3, experiment II): 0.5 µg/mL | Oxacillin MIC in presence of SIC of the compound (1 μg/ml) ([1]; isolate SA4, experiment I): 0.5 µg/mL | Oxacillin MIC in presence of SIC of the compound (1 μg/ml) ([1]; isolate SA4, experiment II): 1 µg/mL | Oxacillin MIC in presence of SIC of the compound (1 μg/ml) ([1]; isolate SA5, experiment I): 0.03 µg/mL | Oxacillin MIC in presence of SIC of the compound (1 μg/ml) ([1]; isolate SA5, experiment II): 0.03 µg/mL | Oxacillin MIC in presence of SIC of the compound (1 μg/ml) ([1]; isolate SA9, experiment I): 2 µg/mL | Oxacillin MIC in presence of SIC of the compound (1 μg/ml) ([1]; isolate SA9, experiment II): 4 µg/mL | Oxacillin MIC in presence of SIC of the compound (1 μg/ml) ([1]; isolate SA10, experiment I): <0.03 µg/mL | Oxacillin MIC in presence of SIC of the compound (1 μg/ml) ([1]; isolate SA10, experiment II): <0.03 µg/mL | Oxacillin MIC in presence of SIC of the compound (1 μg/ml) ([1]; isolate SA11, experiment I): <0.03 µg/mL | Oxacillin MIC in presence of SIC of the compound (1 μg/ml) ([1]; isolate SA11, experiment II): <0.03 µg/mL | Oxacillin MIC in presence of SIC of the compound (1 μg/ml) ([1]; isolate SA15, experiment I): <0.03 µg/mL | Oxacillin MIC in presence of SIC of the compound (1 μg/ml) ([1]; isolate SA15, experiment II): <0.03 µg/mL | Oxacillin MIC in presence of SIC of the compound (1 μg/ml) ([1]; isolate SA18, experiment I): <0.03 µg/mL | Oxacillin MIC in presence of SIC of the compound (1 μg/ml) ([1]; isolate SA18, experiment II): <0.03 µg/mL | SIC ([2]; Table 3, isolate SA1 (MRSA)): 0.5 µg/mL | SIC ([2]; Table 3, isolate SA2 (MRSA)): 1.0 µg/mL | SIC ([2]; Table 3, isolate SA3 (MRSA)): 1.0 µg/mL | SIC ([2]; Table 3, isolate SA4 (MRSA)): 0.5 µg/mL | SIC ([2]; Table 3, isolate SA5 (MRSA)): 1.0 µg/mL | SIC ([2]; Table 3, isolate SA6 (MRSA)): 0.5 µg/mL | SIC ([2]; Table 3, isolate SA7 (MRSA)): 0.5 µg/mL | SIC ([2]; Table 3, isolate SA8 (MRSA)): 1.0 µg/mL | MIC [2, 4]: 2 µg/mL (≈ 5.52 µM) | SIC [2, 4]: 1 µg/mL | MIC [2, 5]: 2 µg/mL (≈ 5.52 µM) | SIC [2, 5]: 1 µg/mL | MIC [2, 6]: 2 µg/mL (≈ 5.52 µM) | SIC [2, 6]: 1 µg/mL | MIC [2, 7]: 2 µg/mL (≈ 5.52 µM) | SIC [2, 7]: 1 µg/mL | SIC ([2]; Table 4, isolate SA2, experiment I): 1 µg/mL | MIC [2, 8]: 2 µg/mL (≈ 5.52 µM) | SIC [2, 8]: 1 µg/mL | Plasmid band in agarose gel of cured derivatives ([3]; S. aureus K1902, FIG. 3): absent | Susceptibility of isolates after exposure to SIC ([3]; SA1 and SA2 to oxacillin, KSA to chloramphenicol): became susceptible | Curing efficiency I [3, 9]: 0% | Curing efficiency II [3, 9]: 100% | Curing efficiency I [3, 10]: 100% | Curing efficiency II [3, 10]: 50% | Curing efficiency I [3, 11]: 0% | Curing efficiency II [3, 11]: 0% | Curing efficiency I [3, 12]: 100% | Curing efficiency II [3, 12]: 0% | Curing efficiency I [3, 13]: 0% | Curing efficiency II [3, 13]: 0% | Curing efficiency I [3, 14]: 0% | Curing efficiency II [3, 14]: 0% | Curing efficiency I [3, 15]: 23% | Curing efficiency II [3, 15]: 90% | Curing efficiency I [3, 16]: 13% | Curing efficiency II [3, 16]: 70% | Curing efficiency (%) ([3]; Table 4, KSA (S. aureus K1902), experiment I, lack of growth in presence of Cm (10 μg/ml)): 36.6% | Curing efficiency (%) ([3]; Table 4, KSA (S. aureus K1902), experiment II, lack of growth in presence of Cm (10 μg/ml)): 46.6% | Curing efficiency (%) ([3]; Table 4, isolate SA1, experiment I, lack of growth in presence of M, Ox (4 μg/ml)): 63.3% | Curing efficiency (%) ([3]; Table 4, isolate SA2, experiment I, lack of growth in presence of M, Ox (4 μg/ml)): 100% | Plasmid curing frequency / curing efficiency ([3]; range over SA1, SA2, SA7 and SA8): 13-100%
